Data: patent US9452986B2, “6-heteroaryloxy- or 6-aryloxy-quinoline-2-carboxamides and method of use” (AbbVie Inc., priority 2014, dated 2016)
pIC50: −log10 of the molar value. Read-outs that look alike come from different tables or passages of the source.

Key:
[1] = target: recombinant human Nav1.8 (Homo sapiens (Human), UniProt Q9Y5Y9); assay: FRET-based membrane potential assay, recombinant human sodium channel Nav1.8; assay type: cell-based
[2] = target: recombinant human Nav1.7 (Homo sapiens (Human), UniProt Q15858); assay: FRET-based membrane potential assay, recombinant human sodium channel Nav1.7; assay type: cell-based; conditions: read-out: FRET-Membrane Potential Nav1.7 IC50
In short: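 Channel activation used veratridine at its EC80, set by a dilution curve each experiment, together with Leiurus scorpion venom, added 3 min after compound. Membrane-potential ratio signals from FLIPR Tetra in HEPES-buffered HBSS were fitted to a four-parameter Hill equation for percent inhibition and IC50.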

[3] = system: osteoarthritic rats; assay: Osteoarthritic (OA) pain induced by sodium monoiodoacetate (MIA), hind limb grip force; assay type: in vivo, rat; conditions: Rattus norvegicus, 480 h, rat, 20 days following MIA injection, hind limb grip force, read-out: OA MPE; for inhibition in vivo at 10 mg/kg: OA dose 10 mg/kg; for inhibition in vivo at 30 mg/kg: OA dose 30 mg/kg
Procedure: Osteoarthritic (OA) Pain Induced by Sodium Monoiodoacetate (MIA)
Pain behavior was assessed by measurement of hind limb grip force (GF) in adult osteoarthritic rats. Male Sprague Dawley rats, obtained from Charles River Laboratories, (Wilmington, Mass.), weighing 150-175 g, were injected in the unilateral knee join with a single intra-articular injection of sodium monoiodoacetate (MIA, 3 mg/rat). All rats were tested at 20 days following MIA injection. A behavioral measure of activity-induced pain was carried out. Measurements of the peak hind limb grip force were conducted by recording the maximum compressive force (CFmax), in grams of force, exerted on a hind limb strain gauge setup, in a commercially available grip force measurement system (Columbus Instruments, Columbus, Ohio).
During testing, each rat was gently restrained by grasping it around its rib cage and then allowed to grasp the wire mesh frame attached to the strain gauge. The experimenter then moved the animal in a rostral-to-caudal direction until the grip was broken. Each rat was sequentially tested twice at an approximately 2-3 minute interval to obtain a raw mean grip force (CFmax). This raw mean grip force data was in turn converted to a maximum hindlimb cumulative compressive force (CFmax), as the grams of force/kg of body weight, for each animal.
For evaluating the compound effects, the hind limb grip force was conducted 20 days following the intra-articular injection of MIA. A group of age-matched naïve (not injected with MIA) animals was added as a comparator to the drug-dosed groups. The vehicle control response for each group of MIA-treated animals was defined as the 0% response (0% effect), whereas the naïve control group was defined as the normal response and as 100% effect. The % effect for each dose group was expressed as % return of response to normalcy, compared to the naïve group. A percent maximal possible effect (% MPE) of testing compound was calculated according to the formula: (Treatment CFmax−Vehicle CFmax)/Vehicle CFmax]×100). Higher % effect numbers indicate increased relief from the pain in the model, with 100% indicating a return to the level of response seen in normal (non-osteoarthritic) animals. All experiments evaluating drug effects in this model were conducted in a randomized blinded fashion.
The animals were housed in Association for Assessment and Accreditation of Laboratory Animal Care (AAALAC) approved facilities at AbbVie Inc. in a temperature-regulated environment under a controlled 12-hour light-dark cycle, with lights on at 6:00 a.m. Food and water were available ad libitum at all times except during testing. All testing was done following procedures outlined in protocols approved by AbbVie Inc.'s Institutional Animal Care and Use Committee.

[4] = HEK293 cells stably expressing recombinant human Nav1.8, veratridine + scorpion venom depolarization
[5] = HEK293 cells stably expressing recombinant human Nav1.7, veratridine + scorpion venom depolarization

Chain of recombinant human Nav1.8 (Q9Y5Y9 whole entry): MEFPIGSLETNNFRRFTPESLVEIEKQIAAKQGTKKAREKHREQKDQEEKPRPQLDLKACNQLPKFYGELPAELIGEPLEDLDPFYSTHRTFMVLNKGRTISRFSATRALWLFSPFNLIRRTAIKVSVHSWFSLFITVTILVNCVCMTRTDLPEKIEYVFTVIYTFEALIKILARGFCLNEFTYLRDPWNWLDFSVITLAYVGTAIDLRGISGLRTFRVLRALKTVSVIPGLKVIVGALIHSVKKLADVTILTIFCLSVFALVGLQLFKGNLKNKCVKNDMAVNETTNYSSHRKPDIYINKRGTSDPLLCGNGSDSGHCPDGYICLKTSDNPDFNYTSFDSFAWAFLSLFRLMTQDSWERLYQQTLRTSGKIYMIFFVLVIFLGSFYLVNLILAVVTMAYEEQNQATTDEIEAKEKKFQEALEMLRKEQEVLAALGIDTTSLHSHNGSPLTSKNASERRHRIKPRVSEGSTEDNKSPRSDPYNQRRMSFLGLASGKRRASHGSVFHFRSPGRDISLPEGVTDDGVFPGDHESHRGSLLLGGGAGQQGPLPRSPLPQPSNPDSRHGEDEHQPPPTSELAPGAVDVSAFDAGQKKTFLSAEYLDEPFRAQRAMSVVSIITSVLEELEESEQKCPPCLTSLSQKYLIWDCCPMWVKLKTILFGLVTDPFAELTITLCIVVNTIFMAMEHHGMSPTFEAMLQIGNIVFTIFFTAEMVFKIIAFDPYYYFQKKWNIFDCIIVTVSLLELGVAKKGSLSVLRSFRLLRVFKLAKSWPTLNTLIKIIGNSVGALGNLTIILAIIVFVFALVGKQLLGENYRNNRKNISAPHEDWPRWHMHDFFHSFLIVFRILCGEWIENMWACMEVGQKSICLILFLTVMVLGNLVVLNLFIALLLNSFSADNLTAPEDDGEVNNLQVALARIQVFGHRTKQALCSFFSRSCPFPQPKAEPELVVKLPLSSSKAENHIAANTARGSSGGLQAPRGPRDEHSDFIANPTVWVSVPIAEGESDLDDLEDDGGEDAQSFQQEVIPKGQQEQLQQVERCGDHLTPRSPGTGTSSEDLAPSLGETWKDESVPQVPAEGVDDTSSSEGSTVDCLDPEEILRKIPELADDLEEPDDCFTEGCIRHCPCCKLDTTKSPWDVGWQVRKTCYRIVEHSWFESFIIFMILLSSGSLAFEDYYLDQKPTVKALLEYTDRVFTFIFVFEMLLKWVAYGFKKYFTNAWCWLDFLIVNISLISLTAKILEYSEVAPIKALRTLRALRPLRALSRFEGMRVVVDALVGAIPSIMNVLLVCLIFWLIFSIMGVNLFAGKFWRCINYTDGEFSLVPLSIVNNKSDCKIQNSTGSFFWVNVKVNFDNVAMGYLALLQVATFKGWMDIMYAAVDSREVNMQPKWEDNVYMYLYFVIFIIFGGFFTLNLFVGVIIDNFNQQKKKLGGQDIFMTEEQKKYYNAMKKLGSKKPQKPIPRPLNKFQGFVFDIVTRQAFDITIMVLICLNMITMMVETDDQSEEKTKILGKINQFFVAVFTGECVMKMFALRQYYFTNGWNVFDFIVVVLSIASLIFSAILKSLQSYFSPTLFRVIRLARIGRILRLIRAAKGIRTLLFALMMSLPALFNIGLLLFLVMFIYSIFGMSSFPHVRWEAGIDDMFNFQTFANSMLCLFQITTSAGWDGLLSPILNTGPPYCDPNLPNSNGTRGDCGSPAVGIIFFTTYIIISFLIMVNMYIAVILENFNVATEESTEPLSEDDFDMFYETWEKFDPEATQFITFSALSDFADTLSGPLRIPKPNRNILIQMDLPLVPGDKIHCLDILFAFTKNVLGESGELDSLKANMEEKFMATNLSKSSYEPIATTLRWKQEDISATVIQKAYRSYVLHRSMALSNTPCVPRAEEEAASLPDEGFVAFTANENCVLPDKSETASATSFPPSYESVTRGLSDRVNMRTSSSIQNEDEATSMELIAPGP
Chain of recombinant human Nav1.7 (Q15858 whole entry): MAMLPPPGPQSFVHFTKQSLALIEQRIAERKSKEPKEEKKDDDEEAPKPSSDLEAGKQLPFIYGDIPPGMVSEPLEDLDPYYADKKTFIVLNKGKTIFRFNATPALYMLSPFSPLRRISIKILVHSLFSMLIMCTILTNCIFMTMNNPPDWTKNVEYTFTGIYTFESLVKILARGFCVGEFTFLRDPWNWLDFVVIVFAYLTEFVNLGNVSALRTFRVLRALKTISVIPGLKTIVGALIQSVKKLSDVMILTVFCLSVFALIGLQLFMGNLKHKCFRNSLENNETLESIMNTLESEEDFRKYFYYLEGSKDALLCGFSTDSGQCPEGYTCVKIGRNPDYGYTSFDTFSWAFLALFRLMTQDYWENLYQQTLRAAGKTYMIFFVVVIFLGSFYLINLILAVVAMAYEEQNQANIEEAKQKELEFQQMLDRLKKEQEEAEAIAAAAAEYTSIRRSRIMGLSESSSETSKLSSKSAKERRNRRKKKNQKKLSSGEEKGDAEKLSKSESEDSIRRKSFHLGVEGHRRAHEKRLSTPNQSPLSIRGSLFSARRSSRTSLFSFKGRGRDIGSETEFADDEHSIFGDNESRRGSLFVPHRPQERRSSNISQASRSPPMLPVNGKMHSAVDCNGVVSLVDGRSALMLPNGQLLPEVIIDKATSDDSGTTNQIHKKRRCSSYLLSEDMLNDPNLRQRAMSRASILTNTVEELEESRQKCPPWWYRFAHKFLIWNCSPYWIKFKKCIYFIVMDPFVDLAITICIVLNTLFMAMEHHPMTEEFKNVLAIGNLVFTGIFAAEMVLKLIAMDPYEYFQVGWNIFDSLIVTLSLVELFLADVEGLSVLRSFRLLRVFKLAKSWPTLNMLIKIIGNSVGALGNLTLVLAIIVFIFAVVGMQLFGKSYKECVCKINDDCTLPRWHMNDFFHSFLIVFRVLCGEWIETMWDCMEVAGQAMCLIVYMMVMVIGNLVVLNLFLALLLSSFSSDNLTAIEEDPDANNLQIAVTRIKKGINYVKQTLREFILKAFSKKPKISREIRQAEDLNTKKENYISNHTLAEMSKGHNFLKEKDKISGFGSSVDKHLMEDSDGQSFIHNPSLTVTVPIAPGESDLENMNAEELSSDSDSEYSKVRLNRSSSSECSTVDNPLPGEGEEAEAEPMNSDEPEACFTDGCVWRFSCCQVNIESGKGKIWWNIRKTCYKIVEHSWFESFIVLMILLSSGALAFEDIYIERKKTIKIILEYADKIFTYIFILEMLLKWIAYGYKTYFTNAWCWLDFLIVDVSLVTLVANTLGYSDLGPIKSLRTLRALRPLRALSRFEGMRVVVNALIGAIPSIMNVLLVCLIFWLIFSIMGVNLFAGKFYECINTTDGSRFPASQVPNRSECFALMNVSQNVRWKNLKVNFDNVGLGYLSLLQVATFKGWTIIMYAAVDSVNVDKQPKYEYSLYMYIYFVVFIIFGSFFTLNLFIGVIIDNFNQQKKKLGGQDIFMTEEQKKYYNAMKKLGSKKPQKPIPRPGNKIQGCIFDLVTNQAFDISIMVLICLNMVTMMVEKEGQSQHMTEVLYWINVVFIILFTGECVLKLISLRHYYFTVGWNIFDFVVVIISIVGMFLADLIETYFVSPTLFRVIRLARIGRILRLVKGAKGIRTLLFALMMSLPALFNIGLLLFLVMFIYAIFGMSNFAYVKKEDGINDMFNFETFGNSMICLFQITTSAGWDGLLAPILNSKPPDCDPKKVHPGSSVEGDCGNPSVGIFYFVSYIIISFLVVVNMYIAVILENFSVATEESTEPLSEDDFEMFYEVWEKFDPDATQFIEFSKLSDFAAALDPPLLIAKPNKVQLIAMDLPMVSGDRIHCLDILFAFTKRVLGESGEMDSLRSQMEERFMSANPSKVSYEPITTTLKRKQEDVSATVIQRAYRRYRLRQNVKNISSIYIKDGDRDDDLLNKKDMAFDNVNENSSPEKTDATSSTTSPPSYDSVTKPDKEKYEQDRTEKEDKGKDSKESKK

SMILES | pIC50 [1, 4] | pIC50 [2, 5] | inhibition in vivo at 10 mg/kg [3] | inhibition in vivo at 30 mg/kg [3] | pIC50 [1] | pIC50 [2]
COC[C@H]1CN(C(=O)c2ccc3cc(Oc4ccc(C(F)F)cn4)ccc3n2)CCN1 [Example 71, (6-{[5-(difluoromethyl)pyridin-2-yl]oxy}quinolin-2-yl) [(3R)-3-(methoxymethyl)piperazin-1-yl]methanone] | 5.79 | 5.74 | 33% |  |  | 
CC1CN(C(=O)c2ccc3cc(Oc4ccc(C(F)F)cn4)ccc3n2)CC(C)N1 (centres unmarked) [Example 67, (6-{[5-(difluoromethyl)pyridin-2-yl]oxy}quinolin-2-yl)(3,5-dimethylpiperazin-1-yl)methanone] | 5.76 | 5.89 | 43% |  |  | 
O=C(c1ccc2cc(Oc3ccc(C(F)(F)F)nc3)ccc2n1)N1CCNCC1 [Example 19, piperazin-1-yl(6-{[6-(trifluoromethyl)pyridin-3-yl]oxy}quinolin-2-yl)methanone] | 5.40 | 5.90 |  | 64% |  | 
CC[C@@H]1CN(C(=O)c2ccc3cc(Oc4ccc(C(F)F)cn4)ccc3n2)CCN1 [Example 55, (6-{[5-(difluoromethyl)pyridin-2-yl]oxy}quinolin-2-yl)[(3R)-3-ethylpiperazin-1-yl]methanone] |  | 6.23 | 42% |  | 5.68 | 
CS(=O)(=O)CCCNC(=O)c1ccc2cc(Oc3ccc(C(F)(F)F)cn3)ccc2n1 [Example 65, N-[3-(methylsulfonyl)propyl]-6-{[5-(trifluoromethyl)pyridin-2-yl]oxy}quinoline-2-carboxamide] | 5.37 |  |  | 63% |  | 5.65
CN1CC(NC(=O)c2ccc3cc(Oc4ccc(C(F)(F)F)cn4)ccc3n2)CC1=O (single isomer, unassigned) [Example 73, N-[(3R*)-1-methyl-5-oxopyrrolidin-3-yl]-6-{[5-(trifluoromethyl)pyridin-2-yl]oxy}quinoline-2-carboxamide] | 5.77 | 5.84 |  | 66% |  | 
CN(CC(F)F)C(=O)c1ccc2cc(Oc3ccc(C(F)(F)F)cn3)ccc2n1 [Example 622, N-(2,2-difluoroethyl)-N-methyl-6-{[5-(trifluoromethyl)pyridin-2-yl]oxy}quinoline-2-carboxamide] | 5.64 |  |  |  |  | 5.27
O=C(NCC(=O)N1CCCC1)c1ccc2cc(Oc3ccc(C(F)(F)F)cn3)ccc2n1 [Example 44, N-[2-oxo-2-(pyrrolidin-1-yl)ethyl]-6-{[5-(trifluoromethyl)pyridin-2-yl]oxy}quinoline-2-carboxamide] |  |  | 42% |  | 6.03 | 
CN1CCC(N(C)C(=O)c2ccc3cc(Oc4ccc(C(F)(F)F)cn4)ccc3n2)CC1=O (centres unmarked) [Example 529, N-methyl-N-(1-methyl-2-oxopiperidin-4-yl)-6-{[5-(trifluoromethyl)pyridin-2-yl]oxy}quinoline-2-carboxamide] | < 4.70 |  |  |  |  | 4.99
O=C(c1ccc2cc(Oc3ccc(C(F)(F)F)cn3)ccc2n1)N1CC(NCC(F)(F)F)C1 [Example 621, {3-[(2,2,2-trifluoroethyl)amino]azetidin-1-yl}(6-{[5-(trifluoromethyl)pyridin-2-yl]oxy}quinolin-2-yl)methanone] | 5.78 | 5.57 |  |  |  | 
O=C(c1ccc2cc(Oc3ccc(C(F)(F)F)cn3)ccc2n1)N1CCNC[C@@H]1C(F)F [Example 603, [(2R)-2-(difluoromethyl)piperazin-1-yl](6-{[5-(trifluoromethyl)pyridin-2-yl]oxy}quinolin-2-yl)methanone] | 5.44 |  |  |  |  | 5.71
O=C1C[C@@H](NC(=O)c2ccc3cc(Oc4ccc(C(F)(F)F)cn4)ccc3n2)CCN1 [Example 512, N-[(4S)-2-oxopiperidin-4-yl]-6-{[5-(trifluoromethyl)pyridin-2-yl]oxy}quinoline-2-carboxamide] | 6.67 |  |  |  |  | 6.01
COCC1CN(C(=O)c2ccc3cc(Oc4ccc(C(F)(F)F)cn4)ccc3n2)C1 [Example 60, [3-(methoxymethyl)azetidin-1-yl](6-{[5-(trifluoromethyl)pyridin-2-yl]oxy}quinolin-2-yl)methanone] |  | 5.90 | 23% |  |  | 
O=C(c1ccc2cc(Oc3ccc(C(F)(F)F)cn3)ccc2n1)N1CCNCC(F)(F)C1 [Example 417, (6,6-difluoro-1,4-diazepan-1-yl)(6-{[5-(trifluoromethyl)pyridin-2-yl]oxy}quinolin-2-yl)methanone] | 5.56 |  |  |  |  | 4.94
CN(CC(F)(F)F)C(=O)c1ccc2cc(Oc3ccc(C(F)(F)F)cn3)ccc2n1 [Example 616, N-methyl-N-(2,2,2-trifluoroethyl)-6-{[5-(trifluoromethyl)pyridin-2-yl]oxy}quinoline-2-carboxamide] |  | 5.58 |  | 28% |  | 
C[C@H]1CN(C(=O)c2ccc3cc(Oc4ccc(C(F)F)cn4)ccc3n2)CCN1 [Example 43, (6-{[5-(difluoromethyl)pyridin-2-yl]oxy}quinolin-2-yl) [(3S)-3-methylpiperazin-1-yl]methanone] |  | 5.51 | 71% |  |  | 
O=C(c1ccc2cc(Oc3ccc(C(F)(F)F)cn3)ccc2n1)N1CC2(CCOCC2)C1 [Example 623, 7-oxa-2-azaspiro[3.5]non-2-yl(6-{[5-(trifluoromethyl)pyridin-2-yl]oxy}quinolin-2-yl)methanone] | 5.43 | 5.31 |  |  |  | 
O=C(c1ccc2cc(Oc3ccc(C(F)(F)F)cn3)ccc2n1)N1CCNC2(CC2)C1 [Example 39, 4,7-diazaspiro[2.5]oct-7-yl(6-{[5-(trifluoromethyl)pyridin-2-yl]oxy}quinolin-2-yl)methanone] |  | 6.13 |  | 43% |  | 
O=C(c1ccc2cc(Oc3ccc(C(F)(F)F)cn3)ccc2n1)N1CC(=O)N2CCC[C@H]2C1 [Example 27, (8aS)-2-[(6-{[5-(trifluoromethyl)pyridin-2-yl]oxy}quinolin-2-yl)carbonyl]hexahydropyrrolo[1,2-a]pyrazin-4(1H)-one] |  | 5.96 | 49% |  |  | 
O=C(c1ccc2cc(Oc3ccc(C(F)(F)F)cn3)ccc2n1)N1CCN[C@@H](CO)C1 [Example 17, [(3R)-3-(hydroxymethyl)piperazin-1-yl](6-{[5-(trifluoromethyl)pyridin-2-yl]oxy}quinolin-2-yl)methanone] |  |  | 19% |  |  | 5.51
O=C(N[C@@H]1CS(=O)(=O)C[C@H]1O)c1ccc2cc(Oc3ccc(C(F)(F)F)cn3)ccc2n1 [Example 24, N-[(3S,4S)-4-hydroxy-1,1-dioxidotetrahydrothiophen-3-yl]-6-{[5-(trifluoromethyl)pyridin-2-yl]oxy}quinoline-2-carboxamide] |  |  | 62% |  |  | 5.80
C[C@H]1CN(C(=O)c2ccc3cc(Oc4ccc(C(F)(F)F)cn4)ccc3n2)CCN1 [Example 13, [(3S)-3-methylpiperazin-1-yl](6-{[5-(trifluoromethyl)pyridin-2-yl]oxy}quinolin-2-yl)methanone] |  |  | 44% |  |  | 6.34
O=C(N[C@@H]1CCS(=O)(=O)C1)c1ccc2cc(Oc3ccc(C(F)(F)F)cn3)ccc2n1 [Example 5, N-[(3R)-1,1-dioxidotetrahydrothiophen-3-yl]-6-{[5-(trifluoromethyl)pyridin-2-yl]oxy}quinoline-2-carboxamide] |  | 6.58 |  | 27% |  | 
O=C(NC1CC(F)(F)C1)c1ccc2cc(Oc3ccc(C(F)F)cn3)ccc2n1 [Example 580, N-(3,3-difluorocyclobutyl)-6-{[5-(difluoromethyl)pyridin-2-yl]oxy}quinoline-2-carboxamide] | 5.94 |  |  |  |  | 5.81
O=C1C[C@H](NC(=O)c2ccc3cc(Oc4ccc(C(F)(F)F)cn4)ccc3n2)CCN1 [Example 521, N-[(4R)-2-oxopiperidin-4-yl]-6-{[5-(trifluoromethyl)pyridin-2-yl]oxy}quinoline-2-carboxamide] | 5.96 |  |  |  |  | 5.58
